Measured values reported in PMC8344021, “Discovery of Small Molecule Bak Activator for Lung Cancer Therapy” (Theranostics, 2021).

Key:
A549 xenografts = test: A549 lung cancer xenografts, tumor growth; format: in vivo, Nu/Nu nude mice
Method: Six-week-old female Nu/Nu nude mice were purchased from Envigo (Indianapolis, IN) and housed under pathogen-free conditions in microisolator cages. The animal propagation protocol was approved by the Emory Institutional Animal Care and Use Committee (IACUC) and the Emory Animal Ethics Committee. 3×10^6 lung cancer cells were injected into subcutaneous tissue in the flank region of nude mice. The tumors were allowed to grow to an average volume of 150~200 mm^3 prior to initiation of therapy as previously described, [29]. Patient-derived xenografts (PDXs, TKO-002 and TKO-005) were established as part of an IRB-approved phase II co-clinical trial of arsenic trioxide in patients with relapsed SCLC who had failed standard platinum-based chemotherapy. Tumor samples were obtained by image-guided biopsy and were directly implanted into Nu/Nu nude mice without intervening propagation in plastic culture plates. Direct serial propagation of growing tumor occurred for up to 5 generations. The animal propagation protocol was approved by the Emory IACUC and the Emory Animal Ethics Committee. Mice with SCLC and NSCLC xenografts or PDXs were treated with BKA-073 intraperitoneally (i.p.) or venetoclax orally as indicated. During treatment, tumor volume (V) was measured by caliper measurements once every two days as described previously. Mice were euthanized by CO2 inhalation at the end of treatment. Harvested tumor tissues were used for further analysis.
To assess whether BKA-073 induced suppression of tumor growth occurs through activation of Bak and apoptosis in vivo, representative samples from harvested tumor tissues were analyzed by cross-linking with BMH for Bak oligomerization or by immunohistochemistry (IHC) for active caspase 3 as described, [29], [47]. […] There were no decreases in white cells (WBC), red blood cells (RBC) and platelets (PLT) in blood.

mouse Bak protein = molecular target: T1, mouse Bak protein (Mus musculus, UniProt O08734); test: Isothermal titration calorimetry (ITC), mouse protein; format: binding; details: mouse wild type Bak
T1 construct: His tag; made in house; host or cells: Escherichia coli BL21 DE3
Method: The binding affinity of BKA-073 with Bak protein was examined by isothermal titration calorimetry (ITC) assay as described, [28]. ITC assay was carried out in the auto-iTC200 instrument (MicroCal, GE) at 25 °C. Purified recombinant human or mouse Bak protein was loaded into a 96 Deepwell PP plate. BKA-073 compound was then titrated stepwise into the protein for a total of 16 injections. Reference power and initial delay were set as 5 µCal/sec and 60s, respectively. A string speed of 750 rpm was used for the ITC measurements. The binding constant (Kd) value was determined by fitting the titration curve to a one-site binding mode, using the Origin software provided by the manufacturer.
Figure S3. […] The binding constant (KD) value was determined by fitting of the titration curve to a 1- […]
(1 x 10^5 cells) was transferred to a 5 ml culture tube, followed by the addition of 5 μl of FITC Annexin V and 5 μl propidium iodide (PI). […] Samples were analyzed by flow cytometry (BD FACSCantoTMII, BD Biosciences, San Jose, CA). ∆% cell death was calculated with the formula: (% cell death treated - % cell death non-treated) as described […]
Fluorescence polarization (FP) assay
Fluorescence polarization assay was carried out as described previously. […] The FP values (in millipolarization units) were measured using a fluorescence microplate reader at 485/530 nm (Gemini XPS, Molecular Devices). […]

T1 sequence (O08734 whole entry): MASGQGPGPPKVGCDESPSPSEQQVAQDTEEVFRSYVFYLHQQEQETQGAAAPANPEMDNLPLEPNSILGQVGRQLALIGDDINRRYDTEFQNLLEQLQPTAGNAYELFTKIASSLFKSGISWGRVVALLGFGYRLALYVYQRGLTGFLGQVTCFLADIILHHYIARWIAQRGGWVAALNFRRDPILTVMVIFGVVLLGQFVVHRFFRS

## COc1ccc2nc3ccccc3c(NCCNCC(C)O)c2c1 (stereo not drawn) [BKA-073]
A549 xenografts; 5, 10, 15mg/kg/d i.p., 28 days
  apoptosis (active caspase 3, IHC) in tumor tissues: Dose-dependent
  tumor growth: potently suppressed lung cancer growth in a dose-dependent fashion
A549 xenografts; 5, 10, 15mg/kg/d i.p., 28 days, BMH cross-linking
  Bak oligomerization in tumor tissues: Dose-dependent
A549 xenografts; A549-P xenografts, 15 mg/kg/d, 4 weeks
  tumor growth: repressed xenografts
A549 xenografts; parental A549 xenografts, 12.5mg/kg/d i.p., 28 days
  tumor growth: potently inhibited growth
Mouse Bak protein
  Kd: 93.4 ± 7.91 nM
